Results taken from ChEMBL document CHEMBL4610120, “New Broad-Spectrum Antibiotics Containing a Pyrrolobenzodiazepine Ring with Activity against Multidrug-Resistant Gram-Negative Bacteria” (J Med Chem, 2020).
≈ marks a conversion by molar mass, not a printed value. Calls of active or inactive are those of the source. No cut-off for these calls is given here.

Tests used:
[1] = tested on: Acinetobacter baumannii; test: Antimicrobial activity against Acinetobacter baumannii ATCC 17978 by microdilution broth method; format: functional
[2] = Selectivity ratio of cytotoxicity against human WI38 cells to MIC for methicillin sensitive Staphylococcus aureus NCTC 6571; format: toxicity, cell-based
[3] = Selectivity ratio of cytotoxicity against human WI38 cells to MIC for multidrug-resistant Klebsiella pneumoniae NCTC 13368; format: toxicity, cell-based
[4] = tested on: Enterococcus faecalis; test: Antibacterial activity against vancomycin resistant Enterococcus faecalis NCTC 12201 by microdilution broth method; format: functional
[5] = Selectivity ratio of cytotoxicity against human WI38 cells to MIC for vancomycin resistant Enterococcus faecalis NCTC 12201; format: toxicity, cell-based
[6] = Selectivity ratio of cytotoxicity against human WI38 cells to MIC for methicillin resistant Staphylococcus aureus NCTC 13616; format: toxicity, cell-based
[7] = Selectivity ratio of cytotoxicity against human WI38 cells to MIC for Pseudomonas aeruginosa PAO1; format: toxicity, cell-based
[8] = Selectivity ratio of cytotoxicity against human WI38 cells to MIC for Klebsiella pneumoniae M6; format: toxicity, cell-based
[9] = Selectivity ratio of cytotoxicity against human WI38 cells to MIC for multidrug-resistant Pseudomonas aeruginosa NCTC 13437; format: toxicity, cell-based
[10] = Selectivity ratio of cytotoxicity against human WI38 cells to MIC for vancomycin resistant Enterococcus faecium NCTC 12204; format: toxicity, cell-based
[11] = tested on: DNA; test: Stabilization of 5'-FAM-TAT-ATA-TAG-ATA-TTT-TTT-TAT-CTA-TAT-ATA-3'-TAMRA DNA (unknown origin) assessed as reduction in change in melting temperature at 1:1 to 5:1 ligand to DNA ratio measured after 3 hrs by FRET-based assay relative to control; format: ADME, nucleic-acid assay
[12] = Cytotoxicity against human WI38 cells assessed as cell viability at 20 uM measured after 24 hrs by MTT assay relative to control; format: cell-based, WI-38; conditions: read-out: Activity
[13] = tested on: DNA; test: Stabilization of 5'-FAM-TAT-AGA-TAT-AGA-TAT-TTT-ATA-TCT-ATA-TCT-ATA-3'-TAMRA DNA (unknown origin) assessed as reduction in change in melting temperature at 1:1 to 5:1 ligand to DNA ratio measured after 3 hrs by FRET-based assay relative to control; format: ADME, nucleic-acid assay
[14] = Selectivity ratio of cytotoxicity against human WI38 cells to MIC for multidrug-resistant Acinetobacter baumannii AYE; format: toxicity, cell-based
[15] = tested on: Pseudomonas aeruginosa; test: Antimicrobial activity against Pseudomonas aeruginosa PAO1 by microdilution broth method; format: functional
[16] = Selectivity ratio of cytotoxicity against human WI38 cells to MIC for Acinetobacter baumannii ATCC 17978; format: toxicity, cell-based
[17] = tested on: Staphylococcus aureus; test: Antibacterial activity against methicillin sensitive Staphylococcus aureus NCTC 6571 by microdilution broth method; format: functional
[18] = tested on: Enterococcus faecalis; test: Antibacterial activity against vancomycin sensitive Enterococcus faecalis NCTC 775 by microdilution broth method; format: functional
[19] = Selectivity ratio of cytotoxicity against human WI38 cells to MIC for methicillin resistant Staphylococcus aureus NCTC 13277; format: toxicity, cell-based
[20] = tested on: Staphylococcus aureus; test: Antibacterial activity against methicillin resistant Staphylococcus aureus NCTC 13616 by microdilution broth method; format: functional
[21] = tested on: Enterococcus faecium; test: Antibacterial activity against vancomycin resistant Enterococcus faecium NCTC 12204 by microdilution broth method; format: functional
[22] = Selectivity ratio of cytotoxicity against human WI38 cells to MIC for vancomycin sensitive Enterococcus faecalis NCTC 775; format: toxicity, cell-based
[23] = target: T1, Cell division inhibitor SulA (Escherichia coli K-12) (UniProt P0AFZ5); test: Induction of Escherichia coli K12 MG1655 sulA promotor measured at 30 mins interval for 20 hrs by fluorescence assay relative to control; conditions: Escherichia coli str. K-12 substr. MG1655
T1 sequence (whole entry): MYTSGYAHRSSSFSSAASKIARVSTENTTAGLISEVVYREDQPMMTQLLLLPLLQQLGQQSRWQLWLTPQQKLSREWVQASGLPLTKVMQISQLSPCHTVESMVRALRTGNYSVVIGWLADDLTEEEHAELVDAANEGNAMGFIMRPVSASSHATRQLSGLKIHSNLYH

[24] = target: T2, Protein RecA (Escherichia coli K-12) (UniProt P0A7G6); test: Induction of Escherichia coli K12 MG1655 recA promotor measured at 30 mins interval for 20 hrs by fluorescence assay relative to control; conditions: Escherichia coli str. K-12 substr. MG1655
T2 sequence (whole entry): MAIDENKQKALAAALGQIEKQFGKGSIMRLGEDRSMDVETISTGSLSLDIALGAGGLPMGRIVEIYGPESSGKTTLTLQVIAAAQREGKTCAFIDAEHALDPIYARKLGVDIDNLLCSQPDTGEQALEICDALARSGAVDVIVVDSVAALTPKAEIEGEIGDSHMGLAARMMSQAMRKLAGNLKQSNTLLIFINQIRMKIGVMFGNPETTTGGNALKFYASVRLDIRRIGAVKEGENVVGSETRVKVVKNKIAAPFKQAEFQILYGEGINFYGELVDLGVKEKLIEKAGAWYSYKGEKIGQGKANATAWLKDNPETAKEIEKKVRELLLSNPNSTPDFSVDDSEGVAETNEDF

[25] = target: T3, DNA repair protein RecN (Escherichia coli) (UniProt P05824); test: Induction of Escherichia coli K12 MG1655 recN promotor measured at 30 mins interval for 20 hrs by fluorescence assay relative to control; conditions: Escherichia coli str. K-12 substr. MG1655
T3 sequence (whole entry): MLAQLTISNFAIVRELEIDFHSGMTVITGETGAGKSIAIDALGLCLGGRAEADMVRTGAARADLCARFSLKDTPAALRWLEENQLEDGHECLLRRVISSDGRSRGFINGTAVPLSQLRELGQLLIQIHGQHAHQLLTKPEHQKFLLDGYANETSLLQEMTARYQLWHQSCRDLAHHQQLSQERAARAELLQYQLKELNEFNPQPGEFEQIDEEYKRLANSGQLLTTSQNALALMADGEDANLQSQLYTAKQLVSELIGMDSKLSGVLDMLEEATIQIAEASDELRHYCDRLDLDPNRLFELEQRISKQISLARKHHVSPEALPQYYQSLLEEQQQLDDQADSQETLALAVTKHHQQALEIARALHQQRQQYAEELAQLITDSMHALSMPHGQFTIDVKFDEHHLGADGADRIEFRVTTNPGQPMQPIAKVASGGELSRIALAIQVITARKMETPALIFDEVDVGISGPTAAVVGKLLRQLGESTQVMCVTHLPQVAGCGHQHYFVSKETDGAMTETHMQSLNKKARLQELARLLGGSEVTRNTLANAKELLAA

[26] = target: T4, LexA repressor (Escherichia coli) (UniProt P0A7C2); test: Induction of Escherichia coli K12 MG1655 lexA promotor measured at 30 mins interval for 20 hrs by fluorescence assay relative to control; conditions: Escherichia coli str. K-12 substr. MG1655
T4 sequence (whole entry): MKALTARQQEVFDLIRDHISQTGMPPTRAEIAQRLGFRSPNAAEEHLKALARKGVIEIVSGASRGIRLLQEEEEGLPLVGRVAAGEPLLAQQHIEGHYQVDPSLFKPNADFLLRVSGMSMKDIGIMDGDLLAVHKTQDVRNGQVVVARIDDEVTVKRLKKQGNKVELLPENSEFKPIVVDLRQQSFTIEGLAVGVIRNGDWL

[27] = tested on: Staphylococcus aureus; test: Antibacterial activity against methicillin resistant Staphylococcus aureus NCTC 13277 by microdilution broth method; format: functional
[28] = tested on: Acinetobacter baumannii; test: Antimicrobial activity against multidrug-resistant Acinetobacter baumannii AYE by microdilution broth method; format: functional

Structure (SMILES) | MIC [1] [µg/mL] | selectivity ratio [2] | selectivity ratio [3] | MIC [4] [µg/mL] | selectivity ratio [5] | selectivity ratio [6] | selectivity ratio [7] | selectivity ratio [8] | selectivity ratio [9] | selectivity ratio [10] | fold change (FC) [11] | viability at 24 h, 20 µM [12] [%] | fold change (FC) [13] | selectivity ratio [14] | selectivity ratio [16] | MIC [17] [µg/mL] | selectivity ratio [19] | MIC [20] [µg/mL] | MIC [21] [µg/mL] | selectivity ratio [22] | other results
COc1cc2c(cc1OCCCC(=O)Nc1cc(C(=O)Nc3ccc4oc(C(=O)N5CCOCC5)cc4c3)n(C)c1)N=C[C@@H]1CCCN1C2=O | 8 (≈ 11.7 µM) | 100 | 10 | ≤ 0.125 | 100 | 100 | 10 | 10 | 10 | 100 | 3 to 4 | > 85 | 3 to 4 | 10 | 10 | ≤ 0.125 | 100 | ≤ 0.125 | ≤ 0.125 | 100 | MIC [15]: > 128 µg/mL; MIC [18]: ≤ 0.125 µg/mL
C[C@H]1c2cccc(O)c2C(=O)C2=C(O)[C@]3(O)C(=O)C(C(N)=O)=C(O)[C@@H](N(C)C)[C@@H]3[C@@H](O)[C@@H]21 | – | – | – | – | – | – | – | – | – | – | – | – | – | – | – | – | – | – | – | – | Activity [23]: inactive; Activity [24]: inactive; Activity [25]: inactive; Activity [26]: inactive
COc1cc2c(cc1OCCCC(=O)Nc1cc(C(=O)Nc3ccc4oc(C(=O)N5CCCCC5)cc4c3)n(C)c1)N=C[C@@H]1CCCN1C2=O | 2 (≈ 2.94 µM) | 100 | 10 | ≤ 0.125 | 100 | 100 | 10 | 10 | 10 | 100 | 3 to 4 | > 85 | 3 to 4 | 10 | 10 | ≤ 0.125 | 100 | 0.25 (≈ 0.367 µM) | ≤ 0.125 | 100 | MIC [27]: 0.5 µg/mL (≈ 0.734 µM)
C[C@H]1COc2c(N3CCN(C)CC3)c(F)cc3c(=O)c(C(=O)O)cn1c23 | – | – | – | – | – | – | – | – | – | – | – | – | – | – | – | – | – | – | – | – | fold change (FC) [23]: 17 to 41; fold change (FC) [24]: 20 to 35; fold change (FC) [25]: 14 to 32; fold change (FC) [26]: 5 to 13
COc1c(N2C[C@@H]3CCCN[C@@H]3C2)c(F)cc2c(=O)c(C(=O)O)cn(C3CC3)c12 | – | – | – | – | – | – | – | – | – | – | – | – | – | – | – | – | – | – | – | – | fold change (FC) [23]: 17 to 41; fold change (FC) [24]: 20 to 35; fold change (FC) [25]: 14 to 32; fold change (FC) [26]: 5 to 13
CCn1cc(C(=O)O)c(=O)c2cc(F)c(N3CCNCC3)cc21 | – | – | – | – | – | – | – | – | – | – | – | – | – | – | – | – | – | – | – | – | fold change (FC) [23]: 17 to 41; fold change (FC) [24]: 20 to 35; fold change (FC) [25]: 14 to 32; fold change (FC) [26]: 5 to 13
COc1cc2c(cc1OCCCC(=O)Nc1cc(C(=O)Nc3ccc4sc(C(=O)N5CCOCC5)cc4c3)n(C)c1)N=C[C@@H]1CCCN1C2=O | 8 (≈ 11.4 µM) | 100 | 10 | ≤ 0.125 | 100 | 100 | 10 | 10 | 10 | 100 | 3 to 4 | > 85 | 3 to 4 | 10 | 10 | ≤ 0.125 | 100 | ≤ 0.125 | ≤ 0.125 | 100 | MIC [15]: 64 µg/mL (≈ 91.6 µM); MIC [18]: ≤ 0.125 µg/mL; MIC [27]: 0.5 µg/mL (≈ 0.716 µM)
COc1cc2c(cc1OCCCC(=O)Nc1cc(C(=O)Nc3ccc4sc(C(=O)N5CCCCC5)cc4c3)n(C)c1)N=C[C@@H]1CCCN1C2=O | 8 (≈ 11.5 µM) | 100 | 10 | ≤ 0.125 | 100 | 100 | 10 | 10 | 10 | 100 | 3 to 4 | > 85 | 3 to 4 | 10 | 10 | ≤ 0.125 | 100 | 0.5 (≈ 0.718 µM) | ≤ 0.125 | 100 | MIC [27]: 1 µg/mL (≈ 1.44 µM)
COc1cc2c(cc1OCCCC(=O)Nc1cc(C(=O)Nc3ccc4sc(C(=O)N5CCSCC5)cc4c3)n(C)c1)N=C[C@@H]1CCCN1C2=O | 2 (≈ 2.8 µM) | 100 | 10 | ≤ 0.125 | 100 | 100 | 10 | 10 | 10 | 100 | 3 to 4 | > 85 | 3 to 4 | 10 | 10 | ≤ 0.125 | 100 | ≤ 0.125 | ≤ 0.125 | 100 | MIC [15]: 64 µg/mL (≈ 89.5 µM); MIC [18]: ≤ 0.125 µg/mL; MIC [27]: ≤ 0.125 µg/mL
CCN(CC)C(=O)c1cc2cc(NC(=O)c3cc(NC(=O)CCCOc4cc5c(cc4OC)C(=O)N4CCC[C@H]4C=N5)cn3C)ccc2s1 | 2 (≈ 2.92 µM) | 100 | 10 | 0.5 (≈ 0.73 µM) | 100 | 100 | 10 | 10 | 10 | 100 | 3 to 4 | > 85 | 3 to 4 | 10 | 10 | – | 100 | 1 (≈ 1.46 µM) | 1 (≈ 1.46 µM) | 100 | MIC [28]: 2 µg/mL (≈ 2.92 µM); MIC [27]: 1 µg/mL (≈ 1.46 µM)
COC(=O)c1cc(NC(=O)c2cc3cc(NC(=O)c4cc(NC(=O)CCCOc5cc6c(cc5OC)C(=O)N5CCC[C@H]5C=N6)cn4C)ccc3s2)cn1C | 64 (≈ 83.6 µM) | – | – | ≤ 0.125 | – | – | – | – | – | – | 3 to 4 | 32 | 3 to 4 | – | – | ≤ 0.125 | – | 0.5 (≈ 0.653 µM) | ≤ 0.125 | – | MIC [28]: 64 µg/mL (≈ 83.6 µM); MIC [15]: > 128 µg/mL; MIC [18]: ≤ 0.125 µg/mL; MIC [27]: 1 µg/mL (≈ 1.31 µM)
